{"source": "patent US8034833B2", "about": "“Phosphorus binder for treatment of renal disease” (Biolink Life Sciences, Inc., priority 2008, dated 2011)", "key": {"[1]": {"conditions": "intravenous administration, cited from earlier work"}, "[2]": {"conditions": "cited from earlier work"}, "[3]": {"conditions": "in many patients; cited from earlier work"}, "[4]": {"conditions": "cited from earlier work", "remark": "listed apart in the source"}, "[5]": {"system": "parathyroid hormone (PTH) secretion", "conditions": "maintenance dialysis patients; cited from earlier work"}, "[6]": {"assay": "Solubility in water of cationic phosphate binders (Lange's Handbook)", "conditions": "relative hydrophile by solubility in water"}, "[7]": {"conditions": "pH 6.0; Sheikh et al. (Note 2); cited from earlier work"}, "[8]": {"conditions": "77 mEq per os; normal subjects; cited from earlier work"}, "[9]": {"conditions": "hemodialysis or peritoneal dialysis patients; cited from earlier work"}}, "note": "Like-named read-outs stand apart in the source and are kept apart here."}
{"compound": "C[N+](C)(C)C[C@H](O)CC(=O)[O-]", "note": "[L-carnitine, L-(−)-Carnitine]", "values": [{"measurement": "effect on total, LDL and HDL cholesterol", "setting": "[1]", "result": "decrease total cholesterol and LDL cholesterol while significantly increasing HDL cholesterol"}, {"measurement": "effect on serum phosphate concentrations", "setting": "[1]; maintenance hemodialysis patients", "result": "reduced the serum phosphate concentrations significantly"}]}
{"compound": "[Mg+2].[OH-].[OH-]", "note": "[Magnesium Hydroxide]", "values": [{"measurement": "serum Mg level, average", "setting": "[2]; during Mg(OH)2 treatment", "result": 4.3, "unit": "mg/dL"}, {"measurement": "serum Pi level", "setting": "[2]; human, in vivo", "result": 6.1, "unit": "mg/dL"}, {"measurement": "severe hyperkalemia", "setting": "[3]", "result": "≤ 8", "unit": "mEq/L"}, {"measurement": "serum Pi level", "setting": "[4]; average 734 mg elemental Mg/day, three to five weeks, control (no binders) 9.0 mg/dL", "result": 8.1, "unit": "mg/dL"}, {"measurement": "mean serum Mg level", "setting": "[4]; average 734 mg elemental Mg/day, dialysate Mg 1.2 to 1.8 mg/dl", "result": 4.32, "unit": "mg/dL"}, {"measurement": "patients who developed diarrhea", "setting": "[4]; nine patients treated", "result": "Four of nine"}, {"measurement": "suppression of parathyroid hormone (PTH) secretion", "setting": "[5]", "result": "Neither the combination of oral calcium carbonate/magnesium hydroxide nor magnesium hydroxide alone was effective"}]}
{"compound": "[O]=[Mg]", "note": "[Magnesium Oxide]", "values": [{"measurement": "Hydrophile?", "setting": "[6]", "result": "No"}]}
{"compound": "Calcium Gluconate", "values": [{"measurement": "Observed in vitro Pi Binding, %", "setting": "[7]", "result": 90, "unit": "%"}]}
{"compound": "Magnesium Acetate", "values": [{"measurement": "Pi absorption", "setting": "[8]", "result": 28, "unit": "%"}]}
{"compound": "choline magnesium trisalicylate", "values": [{"measurement": "effect on serum Pi levels", "setting": "[9]", "result": "no effect"}]}
